Where a SMILES comes first, the peptide text is derived from it. The star is where a group is joined. Propionyl = CCC(=O)*
Assays:
[1] = target: T1, hTfR (Homo sapiens, UniProt P02786); assay: Image J quantification of co-localization with hTfR-GFP (control); assay type: cell-based; settings: CHO-hTfR-GFP, 10 μM
T1 construct: Full length coding regions for hLDLR, mLDLR, rLDLR and hTfR were amplified by RT-PCR; expressed in transfected cells

[2] = target: T2, hLDLR (Homo sapiens, UniProt P01130); assay: Image J quantification of co-localization with hLDLR-GFP; assay type: cell-based; settings: CHO-hLDLR-GFP, 10 μM, n = 3
T2 construct: Full length coding regions for hLDLR, mLDLR, rLDLR and hTfR were amplified by RT-PCR; expressed in transfected cells
Experimental: Cells alone or incubated 1 hr at 37°C with phage or peptide conjugates (10μM for S-Tag, fluorescent or siRNA conjugates and 10nM for Fc conjugates) were washed and subsequently fixed with 4% paraformaldehyde, washed again and incubated for 30 min at room temperature in PBS containing 3% BSA with or without 0.1% triton X-100 (Sigma-Aldrich). Cells were washed with PBS and incubated for 1 hr with primary antibodies directed against the hLDLR (rabbit, 1/100, Acris, Herford, Germany), against M13 bacteriophage (mouse, 1/3000, Sigma-Aldrich), against the S-Tag (goat, 1/250, Abcam) or against the Fc (mouse, 1/100, Jackson ImmunoResearch), followed by 3 washes with PBS and incubation with Alexa fluor 488, 594 or 647 anti-rabbit, anti-mouse or anti-goat secondary antibodies (1/800, Invitrogen). Cell nuclei were labeled with Hoechst #33258 (0.5 μg/mL, Invitrogen). […] In some experiments, binding and endocytosis of macromolecular complexes were assessed on live CHO-hLDLR-EGFP cells. […] Following fixation, cell nuclei were labeled with Hoechst#33258. Mounted slides were acquired with a Leica TCS SP2 confocal microscope (Leica Microsystems, Heidelberg, Germany). Images were analyzed using ImageJ software and quantification of co-localization between two markers was performed using the JaCoP plug-in, by calculating Mander’s correlation coefficients from unmodified images.

[3] = target: T3, mLDLR (Mus musculus, UniProt P35951); settings: in vivo, iv, 0.5 mg/kg
T3 construct: cells expressing LDLR in the zona fasciculata of WT mice; from tissue; host or cells: adrenal gland of C57Bl/6J mice (WT; ldlr-/- as control)
Experimental: For immunohistochemistry, transcardiac NaCl 0.9% perfusion was followed by 50 mL of PBS 1X- 4% paraformaldehyde (PFA). Mice organs were then removed and snap frozen in cold isopentane. Cryostat (Leica CM-3050-S) sections (14 μm thick) were stored at −80°C. Organ sections were first permeabilized and blocked for 1 hr at room temperature using a solution of PBS 1X, 0.1% Triton X-100 and 3% Bovine Serum Albumin (BSA). Sections were then incubated overnight at 4°C with anti-Fc-A594 (goat, 1/200, Jackson ImmunoResearch) and anti-mLDLR (goat 1/200, R&D Systems), followed by anti-goat-Alexa 488 (donkey, 1/800, Life Technologies) for 1 hr at room temperature. Nuclei were stained with Hoechst (0.5 μg/mL, Life Technologies). Omission of the primary antibody was used as control and no immunostaining was observed. Sections were mounted using Prolong Gold Antifading reagent (Life Technologies) on Superfrost glass slides. Images were taken and processed using a confocal microscope (LSM 700) and Zen software (Zeiss, Jena, Germany).

T2 sequence (P01130 22-860): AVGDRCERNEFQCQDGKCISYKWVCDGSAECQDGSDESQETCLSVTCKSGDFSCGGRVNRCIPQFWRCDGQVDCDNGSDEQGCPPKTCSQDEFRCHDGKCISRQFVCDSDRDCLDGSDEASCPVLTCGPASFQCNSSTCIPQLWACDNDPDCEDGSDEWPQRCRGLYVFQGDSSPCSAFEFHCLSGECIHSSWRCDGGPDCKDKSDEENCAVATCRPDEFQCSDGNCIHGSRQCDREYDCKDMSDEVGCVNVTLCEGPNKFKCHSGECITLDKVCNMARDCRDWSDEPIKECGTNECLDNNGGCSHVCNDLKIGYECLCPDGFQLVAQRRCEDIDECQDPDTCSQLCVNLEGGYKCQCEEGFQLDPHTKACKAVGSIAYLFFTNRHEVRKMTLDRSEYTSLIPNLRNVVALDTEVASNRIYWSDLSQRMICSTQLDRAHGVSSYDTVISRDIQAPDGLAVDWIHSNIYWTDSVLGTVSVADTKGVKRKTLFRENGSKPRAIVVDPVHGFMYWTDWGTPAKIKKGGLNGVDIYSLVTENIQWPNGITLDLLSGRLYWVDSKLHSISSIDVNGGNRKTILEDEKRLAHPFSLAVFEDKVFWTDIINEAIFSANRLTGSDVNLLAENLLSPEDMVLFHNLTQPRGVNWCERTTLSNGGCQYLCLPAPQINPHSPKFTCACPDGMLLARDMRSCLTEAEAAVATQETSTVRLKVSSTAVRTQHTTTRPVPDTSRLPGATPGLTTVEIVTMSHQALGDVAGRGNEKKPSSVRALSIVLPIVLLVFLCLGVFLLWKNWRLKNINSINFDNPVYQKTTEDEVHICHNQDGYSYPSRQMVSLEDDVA
T3 sequence (P35951 22-862): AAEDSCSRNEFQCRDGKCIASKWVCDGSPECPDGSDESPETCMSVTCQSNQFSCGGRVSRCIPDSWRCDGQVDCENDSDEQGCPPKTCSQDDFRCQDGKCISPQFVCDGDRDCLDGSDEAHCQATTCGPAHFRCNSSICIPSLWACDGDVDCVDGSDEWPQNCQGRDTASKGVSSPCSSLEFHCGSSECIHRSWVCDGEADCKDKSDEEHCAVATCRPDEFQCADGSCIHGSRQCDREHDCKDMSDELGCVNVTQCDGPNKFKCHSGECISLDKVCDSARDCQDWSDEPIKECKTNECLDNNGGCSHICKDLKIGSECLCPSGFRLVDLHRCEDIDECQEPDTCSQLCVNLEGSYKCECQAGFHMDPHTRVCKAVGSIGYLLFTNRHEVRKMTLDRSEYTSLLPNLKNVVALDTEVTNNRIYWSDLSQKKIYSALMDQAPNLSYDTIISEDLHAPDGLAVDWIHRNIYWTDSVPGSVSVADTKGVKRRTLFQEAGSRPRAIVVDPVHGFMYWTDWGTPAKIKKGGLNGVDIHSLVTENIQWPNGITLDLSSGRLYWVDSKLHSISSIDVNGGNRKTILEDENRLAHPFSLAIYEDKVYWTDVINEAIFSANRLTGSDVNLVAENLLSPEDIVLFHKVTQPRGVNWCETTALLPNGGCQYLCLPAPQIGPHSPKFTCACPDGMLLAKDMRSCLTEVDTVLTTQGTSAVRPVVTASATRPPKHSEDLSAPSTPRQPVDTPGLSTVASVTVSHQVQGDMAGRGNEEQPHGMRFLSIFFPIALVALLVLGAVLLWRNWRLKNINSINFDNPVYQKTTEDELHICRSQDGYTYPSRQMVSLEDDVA
T1 sequence (P02786 whole entry): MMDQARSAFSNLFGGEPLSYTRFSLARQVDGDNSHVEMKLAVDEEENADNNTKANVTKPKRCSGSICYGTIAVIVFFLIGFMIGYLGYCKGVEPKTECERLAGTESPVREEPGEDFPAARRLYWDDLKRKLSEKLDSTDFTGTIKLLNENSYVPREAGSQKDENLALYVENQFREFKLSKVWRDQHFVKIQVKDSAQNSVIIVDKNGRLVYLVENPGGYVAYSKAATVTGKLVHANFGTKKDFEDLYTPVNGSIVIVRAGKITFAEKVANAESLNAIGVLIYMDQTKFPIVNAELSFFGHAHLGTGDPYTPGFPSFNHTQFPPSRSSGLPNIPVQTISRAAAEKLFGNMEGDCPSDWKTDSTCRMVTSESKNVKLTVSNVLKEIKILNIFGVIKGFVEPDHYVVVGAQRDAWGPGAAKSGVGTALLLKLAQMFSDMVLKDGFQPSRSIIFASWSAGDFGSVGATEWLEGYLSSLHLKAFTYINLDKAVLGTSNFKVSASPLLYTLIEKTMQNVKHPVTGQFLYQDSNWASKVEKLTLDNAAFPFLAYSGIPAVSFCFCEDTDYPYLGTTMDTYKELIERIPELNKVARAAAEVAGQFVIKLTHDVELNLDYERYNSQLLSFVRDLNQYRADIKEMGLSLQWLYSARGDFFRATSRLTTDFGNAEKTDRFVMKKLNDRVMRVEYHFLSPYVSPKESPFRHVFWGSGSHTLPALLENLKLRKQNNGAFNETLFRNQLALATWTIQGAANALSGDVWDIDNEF

| Compound | percentage of hLDLR that co-localized with the S-Tag peptide [2] | also measured |
| --- | --- | --- |
| CCC(=O)N[C@@H]1CSSC(C)(C)[C@@H](C(=O)NCC(=O)NCC(=O)NCC(=O)N[C@@H](CCCCN)C(=O)N[C@@H](CCC(=O)O)C(=O)N[C@H](C(=O)N[C@@H](C)C(=O)N[C@@H](C)C(=O)N[C@@H](C)C(=O)N[C@@H](CCCCN)C(=O)N[C@@H](Cc2ccccc2)C(=O)N[C@@H](CCC(=O)O)C(=O)N[C@@H](CCCNC(=N)N)C(=O)N[C@@H](CCC(N)=O)C(=O)N[C@@H](Cc2c[nH]cn2)C(=O)N[C@@H](CCSC)C(=O)N[C@@H](CC(=O)O)C(=O)N[C@@H](CO)C(N)=O)[C@@H](C)O)NC(=O)CNC(=O)[C@H](CCCNC(=N)N)NC(=O)[C@H](CC(C)C)NC(=O)[C@H](CCCNC(=N)N)NC(=O)[C@@H]2CSCN2C(=O)[C@H](CCSC)NC1=O |  | co-localization with hTfR [1]: No co-localization |
| CCC(=O)N[C@@H](CC(C)C)C(=O)N[C@@H](CCCNC(=N)N)C(=O)N[C@@H](CCCCN)C(=O)N[C@@H](CC(C)C)C(=O)N[C@@H](CCCNC(=N)N)C(=O)N[C@@H](CCCCN)C(=O)N[C@@H](CCCNC(=N)N)C(=O)N[C@@H](CC(C)C)C(=O)N[C@@H](CC(C)C)C(=O)N[C@@H](CC(C)C)C(=O)N[C@@H](CCCNC(=N)N)C(=O)N[C@@H](CCCCN)C(=O)N[C@@H](CC(C)C)C(=O)N[C@@H](CCCNC(=N)N)C(=O)N[C@@H](CCCCN)C(=O)N[C@@H](CCCNC(=N)N)C(=O)N[C@@H](CC(C)C)C(=O)N[C@@H](CC(C)C)C(=O)NCC(=O)NCC(=O)NCC(=O)N[C@@H](CCCCN)C(=O)N[C@@H](CCC(=O)O)C(=O)N[C@H](C(=O)N[C@@H](C)C(=O)N[C@@H](C)C(=O)N[C@@H](C)C(=O)N[C@@H](CCCCN)C(=O)N[C@@H](Cc1ccccc1)C(=O)N[C@@H](CCC(=O)O)C(=O)N[C@@H](CCCNC(=N)N)C(=O)N[C@@H](CCC(N)=O)C(=O)N[C@@H](Cc1c[nH]cn1)C(=O)N[C@@H](CCSC)C(=O)N[C@@H](CC(=O)O)C(=O)N[C@@H](CO)C(N)=O)[C@@H](C)O [ApoE2-S-Tag] (Propionyl-LRKLRKRLLLRKLRKRLLGGGKETAAAKFERQHMDS-NH2) | under 10% |  |
| Propionyl-SVIDALQYKLEGTTRLTRKRGLKLATALSLSNKFVEGSGGGKETAAAKFERQHMDS-NH2 [ApoB-S-Tag] | under 10% |  |
| hIgG1Fc-SMCC- (Pr- cRPLGRMC-G-(CH2)2-S)2 (disulfide) [(VH4Sc)2-Fc, human IgG1-Fc chemically conjugated to scrambled VH4Sc peptide via sulfo-SMCC] |  | Fc labeling in adrenal gland zona fasciculata [3]: no Fc labeling |

Source: PMC5828360, “Identification and characterization of highly versatile peptide-vectors that bind non-competitively to the low-density lipoprotein receptor for in vivo targeting and delivery of small molecules and protein cargos” (PLoS ONE, 2018)
